Measurements published in ChEMBL document CHEMBL5113438, “Discovery of highly potent and selective CRBN-recruiting EGFRL858R/T790M degraders in vivo” (Eur J Med Chem, 2022).
Calls of active or inactive are those of the source. No cut-off for these calls is given here.

Key:
[1] = system: NCI-H1299; experiment: Induction of apoptosis in human NCI-H1299 cells assessed as viable cells at 1.0 uM incubated for 48 hrs by AnnexinV-FITC/propidium iodide staining based flow cytometry analysis (reference value: 98.05 % ); type: functional; settings: read-out: Activity
[2] = system: HCC827; experiment: Antiproliferative activity against human NCI-HCC827 cells expressing EGFR del19 incubated for 72 hrs by CCK-8 assay; type: functional, cell-based; settings: HCC827, 72 h
[3] = system: NCI-H1975; experiment: Induction of apoptosis in human NCI-H1975 cells assessed as early apoptotic cells at 1.0 uM incubated for 48 hrs by AnnexinV-FITC/propidium iodide staining based flow cytometry analysis (reference value: 0.11 % ); type: functional
[4] = system: NCI-H1299; experiment: Induction of apoptosis in human NCI-H1299 cells assessed as necrotic cells at 1.0 uM incubated for 48 hrs by AnnexinV-FITC/propidium iodide staining based flow cytometry analysis (reference value: 0.24 % ); type: functional
[5] = system: NCI-H1975; experiment: Induction of apoptosis in human NCI-H1975 cells assessed as late apoptotic cells at 1.0 uM incubated for 48 hrs by AnnexinV-FITC/propidium iodide staining based flow cytometry analysis (reference value: 1.35 % ); type: functional
[6] = system: NCI-H1299; experiment: Induction of apoptosis in human NCI-H1299 cells assessed as necrotic cells at 0.1 uM incubated for 48 hrs by AnnexinV-FITC/propidium iodide staining based flow cytometry analysis (reference value: 0.24 % ); type: functional
[7] = system: NCI-H1299; experiment: Induction of apoptosis in human NCI-H1299 cells assessed as early apoptotic cells at 1.0 uM incubated for 48 hrs by AnnexinV-FITC/propidium iodide staining based flow cytometry analysis (reference value: 0.11 % ); type: functional
[8] = Toxicity in BALB/c mouse xenografted with human NCI-H1299 cells assessed as change in body weight pretreated with compound at 10 mg/kg, ip administered once daily for 24 days and measured every 3 days […]; type: organism-based; settings: in vivo, 576 h, time 24 day
[9] = Tmax in Sprague-Dawley rat at 10 mg/kg, ip measured upto 24 hrs by LC-MS/MS analysis; type: ADME, organism-based; settings: in vivo
[10] = Half life in Sprague-Dawley rat at 1 mg/kg, iv measured upto 24 hrs by LC-MS/MS analysis; type: ADME, organism-based; settings: in vivo
[11] = system: NCI-H1975; experiment: Induction of apoptosis in human NCI-H1975 cells assessed as late apoptotic cells at 0.1 uM incubated for 48 hrs by AnnexinV-FITC/propidium iodide staining based flow cytometry analysis (reference value: 1.35 % ); type: functional
[12] = system: NCI-H1975; experiment: Induction of apoptosis in human NCI-H1975 cells assessed as necrotic cells at 1.0 uM incubated for 48 hrs by AnnexinV-FITC/propidium iodide staining based flow cytometry analysis (reference value: 3.28 % ); type: functional
[13] = system: NCI-H1299; experiment: Induction of apoptosis in human NCI-H1299 cells assessed as late apoptotic cells at 1.0 uM incubated for 48 hrs by AnnexinV-FITC/propidium iodide staining based flow cytometry analysis (reference value: 1.53 % ); type: functional
[14] = system: NCI-H1975; experiment: Antitumor activity against human NCI-H1975 cells xenografted in […] mouse assessed as tumor growth inhibition at 10 mg/kg, ip administered once daily for 24 days relative to control; type: functional; settings: NCI-H1975, 576 h, time 24 day, read-out: TGI
[15] = Clearance in Sprague-Dawley rat at 1 mg/kg, iv measured upto 24 hrs by LC-MS/MS analysis; type: ADME, organism-based; settings: in vivo
[16] = system: NCI-H1975; experiment: Induction of apoptosis in human NCI-H1975 cells assessed as necrotic cells at 0.1 uM incubated for 48 hrs by AnnexinV-FITC/propidium iodide staining based flow cytometry analysis (reference value: 3.28 % ); type: functional
[17] = system: NCI-H1975; experiment: Inhibition of ERK phosphorylation in human NCI-H1975 cells preincubated under serum starvation for 8 hrs followed by compound addition measured after 48 hrs by Western blot analysis; type: cell-based; settings: dose 10-1000 nM, DDE = dose-dependent effect
[18] = Selectivity ratio IC50 for human NCI-H1299 cells expressing wild type EGFR to human NCI-H1975 cells expressing EGFR L858R/T790M; type: functional
[19] = Half life in Sprague-Dawley rat at 10 mg/kg, ip measured upto 24 hrs by LC-MS/MS analysis; type: ADME, organism-based; settings: in vivo
[20] = system: NCI-H1299; experiment: Induction of apoptosis in human NCI-H1299 cells assessed as viable cells at 0.1 uM incubated for 48 hrs by AnnexinV-FITC/propidium iodide staining based flow cytometry analysis (reference value: 98.05 % ); type: functional; settings: read-out: Activity
[21] = target: Protein cereblon/Epidermal growth factor receptor (Homo sapiens, UniProt P00533+Q96SW2, L858R/T790M); experiment: Protac activity at CRBN/EGFR L858R/T790M mutant in human NCI-H1975 cells assessed as induction of EGFR degradation incubated for 72 hrs by Western blot analysis; type: cell-based
[22] = system: NCI-H1975; experiment: Induction of apoptosis in human NCI-H1975 cells assessed as viable cells at 1.0 uM incubated for 48 hrs by AnnexinV-FITC/propidium iodide staining based flow cytometry analysis (reference value: 96.2 % ); type: functional; settings: read-out: Activity
[23] = Plasma protein binding in rat assessed as unbound fraction at 1 uM incubated for 4 hrs by rapid equilibrium dialysis method; type: ADME, cell-free; settings: read-out: PPB (converted)
[24] = system: NCI-H1299; experiment: Induction of apoptosis in human NCI-H1299 cells assessed as late apoptotic cells at 0.1 uM incubated for 48 hrs by AnnexinV-FITC/propidium iodide staining based flow cytometry analysis (reference value: 1.53 % ); type: functional
[25] = system: Epidermal growth factor receptor (Homo sapiens), P00533 [L858R,T790M]; experiment: Inhibition of EGFR L858R/T790M mutant phosphorylation in human NCI-H1975 cells at 1 uM measured after 48 hrs by Western blot assay; type: cell-based
[26] = AUC (0 to infinity) in Sprague-Dawley rat at 1 mg/kg, iv measured upto 24 hrs by LC-MS/MS analysis; type: ADME, organism-based; parameters: dose 1 mg/kg, time < 24 hrs, route iv; settings: in vivo
[27] = Cmax in Sprague-Dawley rat at 10 mg/kg, ip measured upto 24 hrs by LC-MS/MS analysis; type: ADME, organism-based; parameters: time < 24 hrs, dose 10 mg/kg, route ip; settings: in vivo
[28] = system: NCI-H1299; experiment: Antiproliferative activity against human NCI-H1299 cells expressing wild type EGFR incubated for 72 hrs by CCK-8 assay; type: functional, cell-based; settings: NCI-H1299, 72 h
[29] = AUC (0 to t) in Sprague-Dawley rat at 10 mg/kg, ip measured upto 24 hrs by LC-MS/MS analysis; type: ADME, organism-based; parameters: dose 10 mg/kg, time < 24 hrs, route ip; settings: in vivo
[30] = system: NCI-H1975; experiment: Induction of apoptosis in human NCI-H1975 cells assessed as viable cells at 0.1 uM incubated for 48 hrs by AnnexinV-FITC/propidium iodide staining based flow cytometry analysis (reference value: 96.2 % ); type: functional; settings: read-out: Activity
[31] = system: L02; experiment: Cytotoxicity activity against human L02 cells upto 300 uM incubated for 72 hrs by CCK-8 assay; type: toxicity, cell-based; settings: l02, 72 h
[32] = system: Epidermal growth factor receptor (Homo sapiens), P00533 [L858R,T790M]; experiment: Inhibition of EGFR L858R/T790M mutant phosphorylation in human NCI-H1975 cells at 1 uM measured after 8 hrs by Western blot assay; type: cell-based
[33] = system: NCI-H1975; experiment: Antiproliferative activity against human NCI-H1975 cells expressing EGFR L858R/T790M incubated for 72 hrs by CCK-8 assay; type: functional, cell-based; settings: NCI-H1975, 72 h
[34] = Toxicity in BALB/c mouse xenografted with human NCI-H1975 cells assessed as drug tolerability at 10 mg/kg, ip administered once daily for 24 days; type: organism-based; settings: in vivo, 576 h, time 24 day

SMILES: C#CCN(CCCC(=O)Nc1cccc2c1CN(C1CCC(=O)NC1=O)C2=O)CCN(C)c1cc(OC)c(Nc2nccc(-c3cn(C)c4ccccc34)n2)cc1NC(=O)C=C (stereo not drawn)
- viability at 1 µM [1]: 97.8%
- IC50 [2]: 1.12 µM
- Activity [3]: 0.72%
- Activity [4]: 0.37%
- Activity [5]: 25.1%
- Activity [6]: 0.48%
- Activity [7]: 0.082%
- Activity [8]: Non-Toxic
- Tmax [9]: 4.5 h
- half-life [10]: 2.64 h
- Activity [11]: 4.8%
- Activity [12]: 15.2%
- Activity [13]: 0.37%
- inhibition in vivo at 10 mg/kg [14]: 63.7%
- CL ([15]; iv, 1 mg/kg, 24 h): 34.55 mL/min/kg
- Activity [16]: 9.3%
- inhibition [17]: Dde
- Ratio IC50 [18]: 2137
- half-life [19]: 1.85 h
- viability at 0.1 µM [20]: 98%
- EC50 [21]: 0.0132 µM
- viability at 1 µM [22]: 69%
- fraction unbound at 4 h, 1 µM [23]: 0.002
- Activity [24]: 1.27%
- inhibition [25]: Active
- AUC ([26]; 24 h): 973 ng·h/mL
- Cmax [27]: 128 ng/mL
- IC50 [28]: > 100 µM
- AUC(0-t) at 24 h [29]: 971 ng·h/mL
- viability at 0.1 µM [30]: 85.6%
- Activity [31]: Non-Toxic
- inhibition (INH) [32]: 56%
- IC50 [33]: 0.0468 µM
- Activity [34]: Non-Toxic

SMILES: C#CCN(CCC(=O)Nc1cccc2c1CN(C1CCC(=O)NC1=O)C2=O)CCN(C)c1cc(OC)c(Nc2nccc(-c3cn(C)c4ccccc34)n2)cc1NC(=O)C=C (stereo not drawn)
- viability at 1 µM [1]: 97.5%
- IC50 [2]: 1.21 µM
- Activity [3]: 0.55%
- Activity [4]: 0.25%
- Activity [5]: 24.3%
- Activity [6]: 0.39%
- Activity [7]: 0.08%
- Activity [8]: Non-Toxic
- Tmax [9]: 4.67 h
- half-life [10]: 2.29 h
- Activity [11]: 6.59%
- Activity [12]: 14.3%
- Activity [13]: 2.15%
- inhibition in vivo at 10 mg/kg [14]: 55.2%
- clearance ([15]; Sprague-Dawley): 37.1 mL/min/kg
- Activity [16]: 0.96%
- inhibition [17]: Dde
- Ratio IC50 [18]: 1721
- half-life [19]: 2.17 h
- viability at 0.1 µM [20]: 97.7%
- EC50 [21]: 0.0355 µM
- viability at 1 µM [22]: 50.8%
- fraction unbound at 4 h, 1 µM [23]: 0.001
- Activity [24]: 1.79%
- inhibition [25]: Active
- AUC(0-inf) ([26]; Sprague-Dawley): 461 ng·h/mL
- Cmax [27]: 197 ng/mL
- IC50 [28]: > 100 µM
- AUC(0-t) at 24 h [29]: 1540 ng·h/mL
- viability at 0.1 µM [30]: 90.8%
- Activity [31]: Non-Toxic
- inhibition (INH) [32]: 58%
- IC50 [33]: 0.0581 µM
- Activity [34]: Non-Toxic
